Laboratory results: ChEMBL document CHEMBL5724806, “Unraveling interindividual differences and functional consequences of gut microbial metabolism of immunosuppressants” (2024)

Columns and labels:
Assay type in all cases: ADME
[1] = (§1) The drug is tested on Lactobacillus ruminis strain: ATCC25644 for biotransformation under microaerobic condition. The drug concentrations were measured over 6 timepoints collected between 0 and 12 hours of incubation by liquid-chromatography-coupled mass spectrometry (LC–MS); design: dose 5 uM, timepoint 0, 1.5, 3, 6, 9, 12 hours; conditions: ligilactobacillus ruminis, 5 µM
[2] = as §1, with “the gut metagenome community of T-05 with ENA study accession number: PRJEB31790” for “Lactobacillus ruminis strain: ATCC25644”, “7” for “6”; design: dose 5 uM, timepoint 0, 0.75, 1.5, 3, 6, 9, 12 hours; conditions: 5 µM
[3] = as §1, with “the gut metagenome community of T-04 with ENA study accession number: PRJEB31790” for “Lactobacillus ruminis strain: ATCC25644”, “7” for “6”; design: dose 5 uM, timepoint 0, 0.75, 1.5, 3, 6, 9, 12 hours; conditions: 5 µM
[4] = The drug is tested on Escherichia coli strain: DSM27469 for biotransformation under microaerobic condition. The drug concentrations were measured over 6 timepoints collected between 0 and 12 hours of incubation by liquid-chromatography-coupled mass spectrometry (LC–MS); design: dose 5 uM, timepoint 0, 1.5, 3, 6, 9, 12 hours; conditions: 5 µM
[5] = (§2) The drug is tested on Odoribacter splanchnicus strain: DSM20712 for biotransformation under anaerobic condition. The drug concentrations were measured over 6 timepoints collected between 0 and 12 hours of incubation by liquid-chromatography-coupled mass spectrometry (LC–MS); design: dose 5 uM, timepoint 0, 1.5, 3, 6, 9, 12 hours; conditions: 5 µM
[6] = as §2, with “the gut metagenome community of A-03 with ENA study accession number: PRJEB31790” for “Odoribacter splanchnicus strain: DSM20712”, “7” for “6”; design: dose 5 uM, timepoint 0, 0.75, 1.5, 3, 6, 9, 12 hours; conditions: 5 µM
[7] = as §2, with “the gut metagenome community of P-01 with ENA study accession number: PRJEB31790” for “Odoribacter splanchnicus strain: DSM20712”, “7” for “6”; design: dose 5 uM, timepoint 0, 0.75, 1.5, 3, 6, 9, 12 hours; conditions: 5 µM
[8] = The drug is tested on Streptococcus salivarius strain: DSM20560 for biotransformation under microaerobic condition. The drug concentrations were measured over 6 timepoints collected between 0 and 12 hours of incubation by liquid-chromatography-coupled mass spectrometry (LC–MS); design: dose 5 uM, timepoint 0, 1.5, 3, 6, 9, 12 hours; conditions: 5 µM
[9] = as §2, with “the gut metagenome community of A-02 with ENA study accession number: PRJEB31790” for “Odoribacter splanchnicus strain: DSM20712”, “7” for “6”; design: dose 5 uM, timepoint 0, 0.75, 1.5, 3, 6, 9, 12 hours; conditions: 5 µM
[10] = as §2, with “the gut metagenome community of T-04 with ENA study accession number: PRJEB31790” for “Odoribacter splanchnicus strain: DSM20712”, “7” for “6”; design: dose 5 uM, timepoint 0, 0.75, 1.5, 3, 6, 9, 12 hours; conditions: 5 µM
[11] = as §1, with “the gut metagenome community of P-03 with ENA study accession number: PRJEB31790” for “Lactobacillus ruminis strain: ATCC25644”, “7” for “6”; design: dose 5 uM, timepoint 0, 0.75, 1.5, 3, 6, 9, 12 hours; conditions: 5 µM
[12] = as §1, with “the gut metagenome community of A-07 with ENA study accession number: PRJEB31790” for “Lactobacillus ruminis strain: ATCC25644”, “7” for “6”; design: dose 5 uM, timepoint 0, 0.75, 1.5, 3, 6, 9, 12 hours; conditions: 5 µM
[13] = The drug is tested on Coprococcus comes strain: ATCC27758 for biotransformation under anaerobic condition. The drug concentrations were measured over 6 timepoints collected between 0 and 12 hours of incubation by liquid-chromatography-coupled mass spectrometry (LC–MS); design: dose 5 uM, timepoint 0, 1.5, 3, 6, 9, 12 hours; conditions: 5 µM
[14] = as §1, with “the gut metagenome community of P-01 with ENA study accession number: PRJEB31790” for “Lactobacillus ruminis strain: ATCC25644”, “7” for “6”; design: dose 5 uM, timepoint 0, 0.75, 1.5, 3, 6, 9, 12 hours; conditions: 5 µM
[15] = The drug is tested on Enterococcus faecalis strain: ATCC29212 for biotransformation under anaerobic condition. The drug concentrations were measured over 6 timepoints collected between 0 and 12 hours of incubation by liquid-chromatography-coupled mass spectrometry (LC–MS); design: dose 5 uM, timepoint 0, 1.5, 3, 6, 9, 12 hours; conditions: 5 µM
[16] = as §1, with “the gut metagenome community of A-02 with ENA study accession number: PRJEB31790” for “Lactobacillus ruminis strain: ATCC25644”, “7” for “6”; design: dose 5 uM, timepoint 0, 0.75, 1.5, 3, 6, 9, 12 hours; conditions: 5 µM
[17] = The drug is tested on Actinomyces graevenitzii strain: DSM15540 for biotransformation under microaerobic condition. The drug concentrations were measured over 6 timepoints collected between 0 and 12 hours of incubation by liquid-chromatography-coupled mass spectrometry (LC–MS); design: dose 5 uM, timepoint 0, 1.5, 3, 6, 9, 12 hours; conditions: 5 µM
[18] = The drug is tested on Escherichia coli strain: DSM27469 for biotransformation under anaerobic condition. The drug concentrations were measured over 6 timepoints collected between 0 and 12 hours of incubation by liquid-chromatography-coupled mass spectrometry (LC–MS); design: dose 5 uM, timepoint 0, 1.5, 3, 6, 9, 12 hours; conditions: 5 µM
[19] = The drug is tested on Lactobacillus reuteri strain: DSM20016 for biotransformation under anaerobic condition. The drug concentrations were measured over 6 timepoints collected between 0 and 12 hours of incubation by liquid-chromatography-coupled mass spectrometry (LC–MS); design: dose 5 uM, timepoint 0, 1.5, 3, 6, 9, 12 hours; conditions: limosilactobacillus reuteri, 5 µM
[20] = as §2, with “the gut metagenome community of T-03 with ENA study accession number: PRJEB31790” for “Odoribacter splanchnicus strain: DSM20712”, “7” for “6”; design: dose 5 uM, timepoint 0, 0.75, 1.5, 3, 6, 9, 12 hours; conditions: 5 µM
[21] = The drug is tested on Alloscardovia omnicolens strain: DSM21503 for biotransformation under anaerobic condition. The drug concentrations were measured over 6 timepoints collected between 0 and 12 hours of incubation by liquid-chromatography-coupled mass spectrometry (LC–MS); design: dose 5 uM, timepoint 0, 1.5, 3, 6, 9, 12 hours; conditions: 5 µM
[22] = as §1, with “the gut metagenome community of T-03 with ENA study accession number: PRJEB31790” for “Lactobacillus ruminis strain: ATCC25644”, “7” for “6”; design: dose 5 uM, timepoint 0, 0.75, 1.5, 3, 6, 9, 12 hours; conditions: 5 µM
[23] = The drug is tested on Lactobacillus paracasei strain: ATCC27092 for biotransformation under anaerobic condition. The drug concentrations were measured over 6 timepoints collected between 0 and 12 hours of incubation by liquid-chromatography-coupled mass spectrometry (LC–MS); design: dose 5 uM, timepoint 0, 1.5, 3, 6, 9, 12 hours; conditions: lacticaseibacillus paracasei, 5 µM
[24] = The drug is tested on Lactobacillus paracasei strain: ATCC27092 for biotransformation under microaerobic condition. The drug concentrations were measured over 6 timepoints collected between 0 and 12 hours of incubation by liquid-chromatography-coupled mass spectrometry (LC–MS); design: dose 5 uM, timepoint 0, 1.5, 3, 6, 9, 12 hours; conditions: lacticaseibacillus paracasei, 5 µM
[25] = The drug is tested on Bacteroides stercoris strain: HM 1036 for biotransformation under anaerobic condition. The drug concentrations were measured over 6 timepoints collected between 0 and 12 hours of incubation by liquid-chromatography-coupled mass spectrometry (LC–MS); design: dose 5 uM, timepoint 0, 1.5, 3, 6, 9, 12 hours; conditions: 5 µM
[26] = The drug is tested on Streptococcus salivarius strain: DSM20560 for biotransformation under anaerobic condition. The drug concentrations were measured over 6 timepoints collected between 0 and 12 hours of incubation by liquid-chromatography-coupled mass spectrometry (LC–MS); design: dose 5 uM, timepoint 0, 1.5, 3, 6, 9, 12 hours; conditions: 5 µM
[27] = The drug is tested on Prevotella copri strain: DSM18205 for biotransformation under anaerobic condition. The drug concentrations were measured over 6 timepoints collected between 0 and 12 hours of incubation by liquid-chromatography-coupled mass spectrometry (LC–MS); design: dose 5 uM, timepoint 0, 1.5, 3, 6, 9, 12 hours; conditions: segatella copri, 5 µM
[28] = as §1, with “the gut metagenome community of A-10 with ENA study accession number: PRJEB31790” for “Lactobacillus ruminis strain: ATCC25644”, “7” for “6”; design: dose 5 uM, timepoint 0, 0.75, 1.5, 3, 6, 9, 12 hours; conditions: 5 µM
[29] = The drug is tested on Bifidobacterium adolescentis strain: DSM20083 for biotransformation under anaerobic condition. The drug concentrations were measured over 6 timepoints collected between 0 and 12 hours of incubation by liquid-chromatography-coupled mass spectrometry (LC–MS); design: dose 5 uM, timepoint 0, 1.5, 3, 6, 9, 12 hours; conditions: 5 µM
[30] = The drug is tested on Bifidobacterium longum strain: DSM20088 for biotransformation under anaerobic condition. The drug concentrations were measured over 6 timepoints collected between 0 and 12 hours of incubation by liquid-chromatography-coupled mass spectrometry (LC–MS); design: dose 5 uM, timepoint 0, 1.5, 3, 6, 9, 12 hours; conditions: 5 µM

SMILES | Bacterial Biotransformation [1] | Bacterial Biotransformation [2] | Bacterial Biotransformation [3] | Bacterial Biotransformation [4] | Bacterial Biotransformation [5] | Bacterial Biotransformation [6] | Bacterial Biotransformation [7] | Bacterial Biotransformation [8] | Bacterial Biotransformation [9] | Bacterial Biotransformation [10] | Bacterial Biotransformation [11] | Bacterial Biotransformation [12] | Bacterial Biotransformation [13] | Bacterial Biotransformation [14] | Bacterial Biotransformation [15] | Bacterial Biotransformation [16] | Bacterial Biotransformation [17] | Bacterial Biotransformation [18] | Bacterial Biotransformation [19] | Bacterial Biotransformation [20] | further results
C[C@@H]1C[C@H]2[C@@H]3CCC4=CC(=O)C=C[C@]4(C)[C@@]3(F)[C@@H](O)C[C@]2(C)[C@@]1(O)C(=O)CO [DEXAMETHASONE] | Compound NOT metabolized | Compound NOT metabolized | Compound NOT metabolized | Compound NOT metabolized | Compound NOT metabolized | Compound metabolized | Compound NOT metabolized | Compound NOT metabolized | Compound metabolized | Compound NOT metabolized | Compound NOT metabolized | Compound metabolized | Compound NOT metabolized | Compound NOT metabolized | Compound NOT metabolized | Compound metabolized | Compound NOT metabolized | Compound NOT metabolized | Compound NOT metabolized | Compound NOT metabolized | Bacterial Biotransformation [21]: Compound NOT metabolized; Bacterial Biotransformation [22]: Compound NOT metabolized; Bacterial Biotransformation [23]: Compound NOT metabolized; Bacterial Biotransformation [24]: Compound NOT metabolized; Bacterial Biotransformation [25]: Compound NOT metabolized; Bacterial Biotransformation [26]: Compound NOT metabolized; Bacterial Biotransformation [27]: Compound NOT metabolized; Bacterial Biotransformation [28]: Compound NOT metabolized; Bacterial Biotransformation [29]: Compound NOT metabolized; Bacterial Biotransformation [30]: Compound NOT metabolized
COc1ccc([C@@H]2Sc3ccccc3N(CCN(C)C)C(=O)[C@@H]2OC(C)=O)cc1 [DILTIAZEM] | Compound NOT metabolized | Compound metabolized | Compound NOT metabolized | Compound metabolized | Compound NOT metabolized | Compound metabolized | Compound metabolized | Compound metabolized | Compound metabolized | Compound NOT metabolized | Compound metabolized | Compound metabolized | Compound NOT metabolized | Compound metabolized | Compound NOT metabolized | Compound metabolized | Compound NOT metabolized | Compound NOT metabolized | Compound NOT metabolized | Compound NOT metabolized | Bacterial Biotransformation [21]: Compound NOT metabolized; Bacterial Biotransformation [22]: Compound NOT metabolized; Bacterial Biotransformation [23]: Compound NOT metabolized; Bacterial Biotransformation [24]: Compound NOT metabolized; Bacterial Biotransformation [25]: Compound NOT metabolized; Bacterial Biotransformation [26]: Compound NOT metabolized; Bacterial Biotransformation [27]: Compound NOT metabolized; Bacterial Biotransformation [28]: Compound metabolized; Bacterial Biotransformation [29]: Compound NOT metabolized; Bacterial Biotransformation [30]: Compound NOT metabolized
CO[C@H]1C[C@@H]2CC[C@@H](C)[C@@](O)(O2)C(=O)C(=O)N2CCCC[C@H]2C(=O)O[C@H]([C@H](C)C[C@@H]2CC[C@@H](OCCO)[C@H](OC)C2)CC(=O)[C@H](C)/C=C(\C)[C@@H](O)[C@@H](OC)C(=O)[C@H](C)C[C@H](C)/C=C/C=C/C=C/1C [EVEROLIMUS] | Compound NOT metabolized | Compound NOT metabolized | Compound NOT metabolized | Compound NOT metabolized | Compound NOT metabolized | Compound metabolized | Compound NOT metabolized | Compound NOT metabolized | Compound metabolized | Compound NOT metabolized | Compound NOT metabolized | Compound metabolized | Compound metabolized | Compound NOT metabolized | Compound metabolized | Compound metabolized | Compound NOT metabolized | Compound NOT metabolized | Compound NOT metabolized | Compound NOT metabolized | Bacterial Biotransformation [21]: Compound NOT metabolized; Bacterial Biotransformation [22]: Compound NOT metabolized; Bacterial Biotransformation [23]: Compound NOT metabolized; Bacterial Biotransformation [24]: Compound NOT metabolized; Bacterial Biotransformation [25]: Compound NOT metabolized; Bacterial Biotransformation [26]: Compound NOT metabolized; Bacterial Biotransformation [27]: Compound NOT metabolized; Bacterial Biotransformation [28]: Compound NOT metabolized; Bacterial Biotransformation [29]: Compound NOT metabolized; Bacterial Biotransformation [30]: Compound NOT metabolized
